The values that follow come from US20100209486A1, “Method of enhancing CoenzymeQ10 levels in mammals” (priority 2009, published 2010).

Experiment [1] concerns isolated guinea pig hearts. The experiment can be described thus: Myocardial infarct size (TTC staining) in isolated ischemic/reperfused guinea pig hearts. The conditions noted are these: 5 mg/kg/day oral for 4 weeks; 30 min global ischemia, 120 min reperfusion; ratio infarct zone to risk zone; control 38±4.1%. In kind it is in vivo. Here is the method: FIG. 2/A Effects of CoQ10 and CoQ9 on infarct size in isolated guinea pig hearts subjected to 30 min of ischemia followed by 120 min of reperfusion. The bars represent mean±SD of infarct size for control, CoQ10 and CoQ9 supplemented groups. *p<0.05 compared to the untreated age-matched ischemic/reperfused drug-free control (C) value. N=12 in each group.
(§1) Experimental studies were designed to determine if CoQ9 could protect guinea pig hearts from ischemia reperfusion injury. Myocardial ischemia reperfusion injury model is the most widely accepted experimental method for assessment of parameters related to cardio-protection. […] Cardioprotection was assessed by evaluating left ventricular function, ventricular arrhythmias, myocardial infarct size and cardiomyocyte apoptosis.
CoQ9 and CoQ10 treatment protects from cardiac infarction: Animal preparation, drug pretreatment and isolated working heart preparation were done as described in example 1. […] Using the NIH Image 1.61 image processing software, Infarct zones of each slice were traced and the respective areas were calculated in terms of pixels. The areas were measured by computerized planimetry software and these areas were multiplied by the weight of each slice, then the results summed up to obtain the weight of the risk zone. Infarct size was calculated as the ratio, in percent, of the infarct zone to the risk zone. […]

Experiment [2] concerns isolated guinea pig hearts. The experiment in a line: Cardiomyocyte apoptosis (TUNEL) in isolated ischemic/reperfused guinea pig hearts. In kind it is in vivo. The conditions noted are these: 5 mg/kg/day oral for 4 weeks; end of reperfusion; percent of total myocyte population; control 21±2%. Here is the method: FIG. 2/B. Effects of CoQ10 and CoQ9 on cardiomyocyte apoptosis in isolated guinea pig hearts subjected to 30 min of ischemia followed by 120 min of reperfusion. The bars represent mean±SD of cardiomyocyte apoptosis for control, CoQ10 and CoQ9 supplemented groups. *p<0.05 compared to the untreated age-matched ischemic/reperfused drug-free control (C) value.
as §1
CoQ9 and CoQ10 treatment reduces apoptosis of cardiomyocytes: Animal preparation, drug pretreatment and isolated working heart preparation were done as described in example 1. […] The fluorescence staining was viewed with a confocal laser microscope. The number of apoptotic cells was counted and expressed as a percent of total myocyte population. […] Apoptosis of cardiomyocytes determined by Tunel method in control group was about 21±2% at the end of reperfusion.

Turning to `COC1=C(OC)C(=O)C(C/C=C(\C)CC/C=C(\C)CC/C=C(\C)CC/C=C(\C)CC/C=C(\C)CC/C=C(\C)CC/C=C(\C)CC/C=C(\C)CC/C=C(\C)CCC=C(C)C)=C(C)C1=O` [CoQ10, Coenzyme Q10, reference compound], the infarct size in experiment [1] is 21.1±5%. Also, in experiment [2], the “apoptotic cardiomyocytes (Tunel method)” value stood at 6±1%.

In the case of `COC1=C(OC)C(=O)C(C/C=C(\C)CC/C=C(\C)CC/C=C(\C)CC/C=C(\C)CC/C=C(\C)CC/C=C(\C)CC/C=C(\C)CC/C=C(\C)CCC=C(C)C)=C(C)C1=O` [CoQ9, Coenzyme Q9], in experiment [1], the infarct size was determined as 16.3±3.2%. In experiment [2], the “apoptotic cardiomyocytes (Tunel method)” value amounted to 7±1.5%.
